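GI50 = concentration required for 50% inhibition of growth. TGI marks complete inhibition of growth.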
Experiments:
Assay in all cases: NCI anticancer screen, dose series, 384-well format
NCI-H23 lung = test system: NCI-H23 lung
COLO 205 colon = test system: COLO 205 colon
HCC-2998 colon = test system: HCC-2998 colon
NCI-H522 lung = test system: NCI-H522 lung
DU-145 prostate = test system: DU-145 prostate
SNB-75 CNS = test system: SNB-75 CNS
RXF 393 renal = test system: RXF 393 renal
KM12 colon = test system: KM12 colon
OVCAR-3 ovarian = test system: OVCAR-3 ovarian
HT29 colon = test system: HT29 colon
LOX IMVI melanoma = test system: LOX IMVI melanoma
SW-620 colon = test system: SW-620 colon
SF-268 CNS = test system: SF-268 CNS
UO-31 renal = test system: UO-31 renal
HS 578T breast = test system: HS 578T breast
RPMI-8226 leukemia = test system: RPMI-8226 leukemia
UACC-62 melanoma = test system: UACC-62 melanoma
CAKI-1 renal = test system: CAKI-1 renal
SN12C renal = test system: SN12C renal
HL-60(TB) leukemia = test system: HL-60(TB) leukemia
NCI-H460 NSCLC = test system: NCI-H460 NSCLC
SK-OV-3 ovarian = test system: SK-OV-3 ovarian
BT-549 breast = test system: BT-549 breast
SK-MEL-5 melanoma = test system: SK-MEL-5 melanoma
HCT-116 colon = test system: HCT-116 colon
OVCAR-5 ovarian = test system: OVCAR-5 ovarian
OVCAR-8 ovarian = test system: OVCAR-8 ovarian
MCF7 breast = test system: MCF7 breast

CCN1C(=O)N(c2c(F)c(OC)cc(OC)c2F)Cc2cnc3[nH]c(CN4CCOCC4)cc3c21
GI50 (NCI-H23 lung): > 23.3 µM | TGI (NCI-H23 lung): > 100 µM | GI50 (COLO 205 colon): > 100 µM | TGI (COLO 205 colon): > 100 µM | GI50 (HCC-2998 colon): 6.61 µM | TGI (HCC-2998 colon): > 100 µM | GI50 (NCI-H522 lung): > 26.1 µM | TGI (NCI-H522 lung): > 100 µM | GI50 (DU-145 prostate): 3.85 µM | TGI (DU-145 prostate): > 100 µM | GI50 (SNB-75 CNS): 0.0229 µM | TGI (SNB-75 CNS): 6.52 µM | GI50 (RXF 393 renal): 0.962 µM | GI50 (KM12 colon): 9.71 µM | TGI (KM12 colon): > 31.6 µM | GI50 (OVCAR-3 ovarian): 5.94 µM | TGI (OVCAR-3 ovarian): > 31.6 µM | GI50 (HT29 colon): 6.48 µM | GI50 (LOX IMVI melanoma): 4.03 µM | TGI (LOX IMVI melanoma): > 31.5 µM | GI50 (SW-620 colon): 7.31 µM | GI50 (SF-268 CNS): 5.25 µM | TGI (SF-268 CNS): 16.9 µM | GI50 (UO-31 renal): > 31 µM | TGI (UO-31 renal): > 100 µM | GI50 (HS 578T breast): 1.06 µM | TGI (HS 578T breast): 5.82 µM | GI50 (RPMI-8226 leukemia): 2.11 µM | TGI (RPMI-8226 leukemia): 6.34 µM | GI50 (UACC-62 melanoma): 3.8 µM | TGI (UACC-62 melanoma): > 100 µM | GI50 (CAKI-1 renal): 1.03 µM | TGI (CAKI-1 renal): > 31.4 µM | GI50 (SN12C renal): 5.32 µM | TGI (SN12C renal): > 100 µM | GI50 (HL-60(TB) leukemia): 3.28 µM | TGI (HL-60(TB) leukemia): 12.5 µM | GI50 (NCI-H460 NSCLC): 3.48 µM | TGI (NCI-H460 NSCLC): > 31.6 µM | GI50 (SK-OV-3 ovarian): 2.62 µM | TGI (SK-OV-3 ovarian): > 100 µM | GI50 (BT-549 breast): 0.0807 µM | TGI (BT-549 breast): 7.02 µM | GI50 (SK-MEL-5 melanoma): 5.75 µM | TGI (SK-MEL-5 melanoma): > 100 µM | GI50 (HCT-116 colon): 3.84 µM | TGI (HCT-116 colon): > 100 µM | GI50 (OVCAR-5 ovarian): > 73.3 µM | TGI (OVCAR-5 ovarian): > 100 µM | GI50 (OVCAR-8 ovarian): 4.8 µM | TGI (OVCAR-8 ovarian): > 100 µM | GI50 (MCF7 breast): > 60.4 µM | TGI (MCF7 breast): > 100 µM

— PubChem BioAssay (NCI)
